The METLIN SMRT retention time set (Domingo-Almenara et al. 2019)

assay: gradient 5% acetonitrile 3 min, to 50% in 2 min, to 85% in 15 min, held 3 min, 100 µL/min; settings: column: Zorbax Extend-C18 2.1 x 50 mm; eluents: water / acetonitrile, 0.1% formic acid
Summary of the method: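 In both positive and negative ionization mode, a quadrupole time-of-flight mass spectrometer coupled to HPLC analyzed pure standards run in mixtures of ~100 molecules. The Zorbax Extend-C18 column (2.1 × 50 mm, 1.8 μm) was operated at 100 μL/min with water and acetonitrile, each containing 0.1% formic acid. The dead volume was 40 μL and the dwell volume 900 μL. Retention time came from adduct peaks that were computationally picked and individually inspected by hand.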

Compound | RP-LC retention time [s]
CCc1ccc(S(=O)(=O)N2CCc3c(c(-c4nnc(-c5ccc(F)cc5)o4)nn3C)C2)cc1 | 1050
COCCN1C(=O)CCc2cc(NS(=O)(=O)c3ccc(OC)c(Cl)c3)ccc21 | 794
COc1cc(NC(=O)CN2C(=O)CCn3nc(-c4cn(C)c5ccccc45)cc32)cc(OC)c1 | 822
O=C(Nc1cccc(Cl)c1)Nc1nccs1 | 870
CCOCCCNC(=O)Nc1ccc(CCc2nc3ccccc3[nH]2)cc1 | 598
O=C(Oc1ccc[nH]c1=O)c1cccc(Cl)c1 | 756
CCCC1c2nccn2CCCN1C(=O)c1c(C)noc1C (stereo not given) | 576
Cc1ccccc1Nc1c(-c2ccccc2O)nc2cccc(C)n12 | 676
Cc1ccc(CNC(=O)Cn2c(=O)cc(-c3nc(C4CC4)no3)c3ccccc32)cc1 | 950
CC1=C(c2ccc(F)cc2)S(=O)(=O)N=C1N1CCC(C(=O)NCCc2ccco2)CC1 | 802
CCc1nc2cc(-c3noc(-c4ccc5cc[nH]c5c4)n3)ccc2o1 | 1110
Cc1cccc(N2CCN(C(=O)c3csc(C(=O)NC4CC4)n3)CC2)c1 | 809
CCN(CC)C(=O)c1ccc(-c2nc3cc(NS(=O)(=O)c4ccc(Cl)cc4)ccc3n2C)cc1 | 735
COC(=O)c1ccc(OC)c(Cn2cnc3c(-c4cccc(F)c4)csc3c2=O)c1 | 1080
Cc1nc(-c2csc(S(=O)(=O)N3CCCC(C(=O)NCCc4ccccc4)C3)c2)no1 (stereo not given) | 901
Cc1c2ccnc(C(N)=O)c2c(C)c2c1[nH]c1ccccc12 | 619

Compound | RP-LC retention time [s]
O=S(=O)(C1CC1)N1CCCCC1c1nncn1Cc1ccccc1 (stereo not given) | 722
CC(=O)N1CCc2cc(C)c(S(=O)(=O)N3CCOCC3)cc21 | 708
Cc1ccc(-c2csc(-n3nc(C)c(CC(=O)N4CCc5ccccc5C4)c3C)n2)cc1 | 1310
COc1ccc2c(C)c(CC(=O)N3CCC(C(N)=O)CC3)c(=O)oc2c1OC | 622
Cc1cccc(N2CCN(S(=O)(=O)c3cc4c(s3)CCN(C(=O)C3CC3)C4)CC2)c1 | 1040
Cc1ccc(NC(=O)C2CCN(S(=O)(=O)c3cc(C(=O)N4CCCC4)n(C)c3)CC2)nc1 | 647
Cc1ccc(Sc2nccnc2N2CCCC(C(=O)N3CCN(c4ccc(C)cc4)CC3)C2)cc1 (stereo not given) | 1290
Cn1c(=O)oc2cc(-c3noc(-c4cccc(F)c4)n3)ccc21 | 1020
COc1ccc2c(c1)C1(CCN(S(=O)(=O)c3ccccc3)C1)C(=O)N2C (stereo not given) | 882
COc1ccccc1NC(=O)N1CCN(c2cc(C)nc(N3CCOCC3)n2)CC1 | 618
CSc1ccc(-c2nc3c(C)cccn3c2Nc2ccccc2C)cc1 | 810
O=C1CCC(CCNS(=O)(=O)c2ccc3c(c2)CCCC3)CCN1CC1CC1 (stereo not given) | 938
Cc1cccc(C)c1NC(=O)C(C)n1cnc2nc3c(cc2c1=O)CCCC3 (stereo not given) | 756
CCOC(=O)N1CCN(c2cc(C(=O)O)c3cc(NC(=O)COc4ccccc4)ccc3n2)CC1 | 629
Cc1ccc(C)c(NC(=O)CN(C)S(=O)(=O)c2cc(C(=O)N3CCC(C)CC3)n(C)c2)c1 | 924
O=C(NCc1ccsc1)NC(c1ccccc1)c1ccccc1 | 863

Results, then the compound that gave them:

RP-LC retention time [s] | Compound
953 | CCc1cccc(NC(=O)C2CCN(S(=O)(=O)c3ccc4c(c3)sc(=O)n4C(C)C)CC2)c1
894 | CCNC(=O)Nc1ccc2c(c1)CN(S(=O)(=O)c1ccc3c(c1)CCC3)CCO2
907 | CCN1C(=O)c2cccnc2Sc2cc(NC(=O)c3ccc(Cl)cc3)ccc21
593 | CCNC(=O)c1nc(N(C)C)c2c(C)scc2n1
744 | Cc1cccc(N2C(=O)CN(Cc3ccco3)[C@H]3CS(=O)(=O)C[C@H]32)c1
1040 | CCN1C(=O)COc2ccc(-c3noc(-c4ccc5cc[nH]c5c4)n3)cc21
952 | COC(=O)c1cc(C)nc2c1c(=O)n(Cc1cccc(C#N)c1)c(=O)n2C
1070 | COc1ccccc1N1CCN(c2cc(SCC(=O)Nc3cc(C)ccc3C)ncn2)CC1
540 | Nc1ccc(CCNc2ncnc3c2ncn3C2OC(CO)C(O)C2O)cc1 (stereo not given)
600 | Cn1cnc(S(=O)(=O)N2CC(N(Cc3ccccc3)C3CCOCC3)C2)c1
774 | CCOC(=O)c1ccc(NC(=O)C2CCN(S(=O)(=O)c3cn(CC)cn3)CC2)cc1
1030 | Cc1ccc(-c2noc(C3CCCN3C(=O)CNS(=O)(=O)c3ccc(Cl)cc3)n2)cc1 (stereo not given)
586 | CCNc1cc(N2CCCC(CCC(=O)N3CCOCC3)C2)ncn1 (stereo not given)
878 | O=S(=O)(Nc1cc(F)cc(F)c1)c1ccc(-c2nnc(C3CC3)o2)o1
764 | COc1cc(CN2CCc3nc(N4CCC(C)CC4)ncc3C2)ccc1OC(C)C
680 | CCNc1cc(N2CCC(CCC(=O)NCc3ccc(F)cc3Cl)CC2)ncn1
775 | Cc1cccc(N2CCN(C(=O)C3CCCN(c4cnc5nccnc5c4)C3)CC2)c1 (stereo not given)

RP-LC retention time [s] | Compound
758 | CCCCN(CC)CCNC(=O)c1cn2c3c(ccc(Cl)c3c1=O)OCC2
1100 | NC(N)=NCCC[C@H](NC(=O)[C@@H]1CCCN1C(=O)[C@H](N)Cc1ccccc1)C(=O)CCl
758 | COc1ccc(N2C=C(C(=O)N3CCCC3)S(=O)(=O)c3ccc(F)cc32)cc1OC
935 | O=C(CSc1nnc2c3cc(-c4ccc(F)cc4)nn3ccn12)Nc1ccccc1Br
916 | COc1ccc(CCc2nc3nccc(-c4ccc(F)cc4OC)n3n2)cc1
639 | CC(C)c1nnc(C2CN(C(=O)c3cccn3C)CC23CCOCC3)o1 (stereo not given)
1150 | CCc1nc2cc(-c3noc(-c4ccc5c(c4)OCO5)n3)ccc2o1
1310 | Cc1ccc(S(=O)(=O)c2cnc(N3CCN(c4cc(C)ccc4C)CC3)nc2N)cc1
716 | CCC(C)NC(=O)C1CCCN(c2ccc(-c3ccc(C)c(C)c3)nn2)C1 (stereo not given)
748 | CCCc1noc(-c2cccnc2N2CCCN(Cc3ccc(F)cc3Cl)CC2)n1
810 | NS(=O)(=O)c1ccc(CCNCc2ccc(-c3ccc(Cl)cc3)o2)cc1
892 | COc1ccc(NC(=O)N2CCCC2c2nc(-c3ccccc3OC)no2)cc1Cl (stereo not given)
573 | O=C(NCCn1nc(-c2cccs2)ccc1=O)c1cc(-c2cccs2)[nH]n1
789 | COCCCNC(=O)C1c2ccccc2CC(=O)N1Cc1ccccc1 (stereo not given)
814 | O=C(c1cccs1)N1CCN(c2ccc(=O)n(-c3cccc(Cl)c3)n2)CC1
1060 | O=C(Nc1cccc(Br)c1)N1CCc2nc(-c3ccc(F)cc3)ncc2C1
